Where two headings read alike, the source gives them in different places.
Tests used:
CYP3A4 = target: T1, CYP3A4 (Homo sapiens, UniProt P08684); assay: CYP3A4 fluorescence MBI test; format: in vitro ADME; conditions: difference in IC50 with 0 or 30 minutes pre-reaction; CYP3A4 expressed in E. coli, substrate 7-BFC
T1 construct: host or cells: E. coli
In short: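 E. coli-expressed CYP3A4 debenzylating 5.6 μmol/L 7-BFC to fluorescent 7-HFC (Ex 420/Em 535 nm) in K-Pi pH 7.4 at 25° C, 15 min reaction. NADPH pre-incubation of 0 or 30 min, with 10-fold dilution before reaction. IC50 from 0.625–20 μmol/L (6 points); (+) for an IC50 shift ≥5 μmol/L, (−) for ≤3 μmol/L.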

PI3Kγ = PI3Kγ (Homo sapiens, UniProt P48736); assay: PI3Kγ inhibitory activity (PI3-kinase HTRF assay, inhibition ratio); format: biochemical; conditions: 0.5 h, compound at 10 μmol/L; read-out: PI3Kg Inhibition Ratio % (10 μM)
In short: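 Compound at 10 μmol/L preincubated 10 min with PI3Kγ and PIP2 substrate, then reacted with ATP for 30 minutes at room temperature; the compound, substrate and ATP figures as printed (40 μmol/L each) are solution concentrations. HTRF 665/620 nm ratio read after 18 hours. Inhibition ratio calculated against no-compound (100%) and no-enzyme (0%) controls.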

[1] = test system: CYP1A2, CYP2C9, CYP2C19, CYP2D6 and CYP3A4 (one value for the five species); assay: CYP inhibition test, five CYP species together (5CYPs_IC50; pooled human liver microsome); format: in vitro ADME
Excerpt: O-de-ethylation of 7-ethoxyresorufin (CYP1A2), methyl-hydroxylation of tolbutamide (CYP2C9), 4′-hydroxylation of mephenyloin (CYP2C19), O-demethylation of dextromethorphan (CYP2D6), and hydroxylation of terfenadine (CYP3A4), which are typical substrate for metabolic reactions of human main CYP5 molecular species (CYP1A2, 2C9, 2C19, 2D6, and 3A4), were adopted as indexes.
The reaction conditions are as follows: substrate: 0.5 μmol/L of ethoxyresorufin (CYP1A2), 100 μmol/L of tolbutamide (CYP2C9), 50 μmol/L of S-mephenyloin (CYP2C19), 5 μmol/L of dextromethorphan (CYP2D6), and 1 μmol/L of terfenadine (CYP3A4); reaction time; 15 minutes; reaction temperature: 37° C.; enzyme: pooled human liver microsome 0.2 mg protein/mL; test drug concentration: 1, 5, 10, and 20 μmol/L (4 points).
In a 96-well plate, as a reaction solution, five kinds of substrates, a human liver microsome, and a test drug were added to 50 mmol/L Hepes buffer solution in the aforementioned ratio. A coenzyme NADPH was added to start a metabolic reaction, which is an index. After reacting at 37° C. for 15 minutes, a solution of methanol/acetonitrile (1/1 (v/v)) was added to quench the reaction. After centrifugation at 3000 rpm for 15 minutes, resorufin (CYP1A2 metabolite) in the supernatant was quantitated with a fluorescence multilabel counter, and hydroxylated tolbutamide (CYP2C9 metabolite), 4′-hydroxylated mephenyloin (CYP2C19 metabolite), […], terfenadine in alcohol form (CYP3A4 metabolite) were quantitated with LC/MS/MS.
The case wherein only DMSO (a solvent which dissolved a drug) was added to a reaction system was defined as a control (100%). When a test drug solution was added, the remaining activity (%) at each concentration was calculated, and then IC50 was calculated with a concentration and an inhibition ratio by an inverse estimation using a logistic model.

[2] = Metabolic stability test (pooled human liver microsome); format: in vitro ADME; conditions: percentage of test compound remained after 30 minutes, pooled human liver microsome 0.5 mg protein/mL, 1 mmol/L NADPH, 37° C., compound 0.5 μM
In short: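 Pooled human liver microsomes (0.5 mg protein/mL) incubated with compound and 1 mmol/L NADPH at 37° C. in pH 7.4 Tris buffer for 0 or 30 min. Parent quantified by LC/MS/MS after methanol/acetonitrile quench; value is % remaining at 30 min versus 0 min.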

hERG channel (IKr) = target: T2, hERG channel (IKr) (Homo sapiens, UniProt Q12809); assay: hERG test (whole-cell patch-clamp, IKr in HEK293 cells); format: cell-based; conditions: human, HEK293 cells expressing hERG channel, pH 7.4, inhibition of maximum tail current (IKr), compound 1 μM
T2 construct: expressed in transfected cells; host or cells: HEK293
In short: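 hERG-expressing HEK293 cells, automated whole-cell patch clamp: hold −80 mV, +50 mV for 2 s, then −50 mV for 2 s to record IKr tail current. Compound in extracellular solution (pH 7.4) for 10 min at room temperature; inhibition of maximum tail current calculated versus pre-application and compared with 0.1% DMSO vehicle.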

AKT phosphorylation = AKT phosphorylation inhibitory activity in MCP-1 stimulated THP-1 cells (sandwich ELISA); format: cell-based, Human; conditions: Homo sapiens, compound at 1 μmol/L, MCP-1 stimulation, read-out: AKT phosphorylation inhibition ratio
Experimental: (1) The AKT phosphorylation inhibitory activity of a compound was evaluated according to the following procedure. (2) Human monocyte-like cell line THP-1 was washed with RPMI-1640 media, incubated in the presence of 5% CO2 at 37° C. for 3 hours, washed with Hank's balanced salt solution (HBSS), adjusted to a cell concentration of 6.7×10^6/mL, and then used in an experiment. (3) 30 μL of the cell suspension and 60 μL of each compound solution containing 0.2% DMSO/HBSS were mixed and then preincubated at 37° C. for 5 minutes. 30 μL of HBSS containing 1.2 μg/mL of MCP-1 was added thereto and then incubated for 60 seconds at 37° C. (4) 30 μL of a cell lysate (the final concentrations: 20 mmol/L Tris-HCl (pH 7.5), 150 mmol/L NaCl, 1 mmol/L EDTA, 1 mmol/L EDTA, 1% Triton X-100, 2.5 mmol/L sodium pyrophosphate, 1 mmol/L β-glycerophosphate, 1 mmol/L Na3VO4, 1 μg/ml leupeptin, 50 nmol/L APMSF) was added thereto to lyse cells. (5) The amount of AKT phosphorylation in the cell solution was measured by sandwich ELISA method using anti-Phospho-Akt (Ser473) antibody and anti-AKT1 antibody. (6) Anti-Phospho-Akt (Ser473) antibodies or anti-AKT1 antibodies were immobilized onto the solid phase of a micro well plate. The prepared cell lysate was added to the micro well plate, incubated, and then washed with ELISA wash solution. (7) An anti-AKT1 antibody or anti-Phospho-Akt (Ser473) antibody, which forms a counterpart to an antibody immobilized on the solid phase, was added thereto, incubated, washed similarly, and then reacted with an HRP-labeled anti-mouse IgG antibody. (8) After incubating for 30 minutes and then washing similarly, 100 μL of TMB (3,3′,5,5″-tetramethylbenzidine) was added thereto, followed by reacting for 30 minutes. (9) 100 μL of stop solution was added to quench the color reaction, and then the absorbance at 450 nm was measured. (10) The amount of AKT phosphorylation in a sample in the absence of a compound was defined as 100% activity, and the amount of AKT phosphorylation in a sample in the absence of MCP-1 was defined as 0% activity to calculate an inhibition ratio of each compound. The measurement was performed for a 1 μmol/L solution of each compound.

T2 sequence (Q12809 whole entry): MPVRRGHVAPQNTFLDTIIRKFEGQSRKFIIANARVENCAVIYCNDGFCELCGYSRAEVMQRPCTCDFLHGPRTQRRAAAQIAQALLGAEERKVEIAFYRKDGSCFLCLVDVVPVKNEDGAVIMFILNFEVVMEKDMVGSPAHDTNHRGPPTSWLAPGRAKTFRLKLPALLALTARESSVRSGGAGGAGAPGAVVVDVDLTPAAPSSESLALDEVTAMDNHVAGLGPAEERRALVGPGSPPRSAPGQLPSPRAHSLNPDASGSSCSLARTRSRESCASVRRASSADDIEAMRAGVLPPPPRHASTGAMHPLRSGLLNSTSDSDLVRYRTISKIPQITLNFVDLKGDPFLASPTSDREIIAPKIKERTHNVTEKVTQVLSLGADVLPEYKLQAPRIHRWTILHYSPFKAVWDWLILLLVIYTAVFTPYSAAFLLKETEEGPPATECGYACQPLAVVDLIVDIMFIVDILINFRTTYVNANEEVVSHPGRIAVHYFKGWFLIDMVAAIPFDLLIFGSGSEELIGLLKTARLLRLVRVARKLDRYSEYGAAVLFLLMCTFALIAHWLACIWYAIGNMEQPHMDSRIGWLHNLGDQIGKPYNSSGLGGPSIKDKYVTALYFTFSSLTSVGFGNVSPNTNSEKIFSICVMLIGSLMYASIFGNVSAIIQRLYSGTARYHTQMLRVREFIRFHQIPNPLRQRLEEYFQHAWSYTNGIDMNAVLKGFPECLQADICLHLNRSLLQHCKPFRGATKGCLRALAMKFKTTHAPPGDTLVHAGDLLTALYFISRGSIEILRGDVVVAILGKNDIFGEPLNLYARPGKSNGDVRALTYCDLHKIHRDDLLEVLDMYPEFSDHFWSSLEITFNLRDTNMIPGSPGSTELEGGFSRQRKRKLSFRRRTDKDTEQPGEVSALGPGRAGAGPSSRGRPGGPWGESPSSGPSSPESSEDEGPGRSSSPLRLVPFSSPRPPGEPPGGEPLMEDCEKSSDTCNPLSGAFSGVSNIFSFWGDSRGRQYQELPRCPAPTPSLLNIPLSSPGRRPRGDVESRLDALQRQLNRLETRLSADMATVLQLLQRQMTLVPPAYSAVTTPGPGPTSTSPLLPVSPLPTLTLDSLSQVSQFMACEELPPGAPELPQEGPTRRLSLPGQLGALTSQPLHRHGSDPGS
Chain of PI3Kγ (P48736 whole entry, species assumed): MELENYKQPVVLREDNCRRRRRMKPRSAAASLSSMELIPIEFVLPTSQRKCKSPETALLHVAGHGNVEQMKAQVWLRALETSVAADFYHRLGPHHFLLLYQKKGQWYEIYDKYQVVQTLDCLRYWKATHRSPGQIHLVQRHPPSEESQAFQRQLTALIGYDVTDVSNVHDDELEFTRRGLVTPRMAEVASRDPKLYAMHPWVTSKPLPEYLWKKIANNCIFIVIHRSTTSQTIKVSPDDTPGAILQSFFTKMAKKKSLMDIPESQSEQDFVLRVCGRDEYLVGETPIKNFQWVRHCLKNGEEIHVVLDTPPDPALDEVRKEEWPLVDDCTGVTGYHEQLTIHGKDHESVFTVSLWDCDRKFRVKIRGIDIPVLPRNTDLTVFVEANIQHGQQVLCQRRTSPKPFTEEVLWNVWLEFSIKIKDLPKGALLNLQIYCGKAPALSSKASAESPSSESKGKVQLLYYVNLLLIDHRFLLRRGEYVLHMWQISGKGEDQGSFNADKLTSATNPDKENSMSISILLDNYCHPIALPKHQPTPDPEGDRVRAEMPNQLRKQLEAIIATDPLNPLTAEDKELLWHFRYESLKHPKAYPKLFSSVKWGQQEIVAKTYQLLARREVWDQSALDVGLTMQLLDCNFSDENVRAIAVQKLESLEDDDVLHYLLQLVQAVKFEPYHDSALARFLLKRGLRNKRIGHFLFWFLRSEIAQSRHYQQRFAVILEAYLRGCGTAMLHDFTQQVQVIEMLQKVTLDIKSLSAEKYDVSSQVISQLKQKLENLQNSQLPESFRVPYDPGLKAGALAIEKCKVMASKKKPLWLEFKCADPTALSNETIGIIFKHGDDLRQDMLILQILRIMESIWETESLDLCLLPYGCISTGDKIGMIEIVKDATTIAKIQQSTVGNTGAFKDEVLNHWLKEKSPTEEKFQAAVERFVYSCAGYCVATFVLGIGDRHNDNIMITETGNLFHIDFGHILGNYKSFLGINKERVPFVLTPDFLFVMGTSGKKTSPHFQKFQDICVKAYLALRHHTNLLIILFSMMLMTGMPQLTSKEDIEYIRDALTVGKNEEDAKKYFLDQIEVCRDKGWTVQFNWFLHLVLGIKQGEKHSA
T1 sequence (P08684 whole entry): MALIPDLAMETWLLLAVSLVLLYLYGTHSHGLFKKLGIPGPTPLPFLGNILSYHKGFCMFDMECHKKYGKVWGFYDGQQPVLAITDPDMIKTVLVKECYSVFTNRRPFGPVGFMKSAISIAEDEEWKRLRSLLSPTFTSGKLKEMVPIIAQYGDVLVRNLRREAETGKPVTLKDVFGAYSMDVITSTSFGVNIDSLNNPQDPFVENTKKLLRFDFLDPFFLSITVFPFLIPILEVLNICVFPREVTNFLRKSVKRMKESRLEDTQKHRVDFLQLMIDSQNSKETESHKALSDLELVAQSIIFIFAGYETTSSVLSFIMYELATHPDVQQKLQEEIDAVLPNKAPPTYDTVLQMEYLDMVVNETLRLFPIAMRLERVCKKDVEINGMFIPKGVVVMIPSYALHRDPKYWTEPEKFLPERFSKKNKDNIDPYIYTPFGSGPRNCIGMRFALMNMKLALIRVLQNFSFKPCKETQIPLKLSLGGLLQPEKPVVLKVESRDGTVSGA

SMILES | inhibition at 10 µM (PI3Kγ) | IC50 at 15 min ([1]; pooled human liver microsomes, one value for five species (CYP1A2, 2C9, 2C19, 2D6, 3A4), pooled human liver microsome 0.2 mg protein/mL, 15 minutes, 37° C., test drug 1-20 μmol/L, read-out: 5CYPs_IC50) | IC50 at 15 min ([1]; human, microsomes) | hLMS_ox(at 0.5 μM) % [2] | MBI (CYP3A4) | inhibition at 10 min, 1 µM (hERG channel (IKr)) | inhibition at 1 µM (AKT phosphorylation)
COc1cc(N2CCc3nc(NC(=O)Nc4ccccc4C(C)=O)sc3C2)nc(OC)n1 [Compound I-9] | 93% | – | ≥ 10 µM | – | (−) (When 3 μmol/L or less, the compound is shown as (−)) | – | –
COc1cc(N2CCc3nc(NC(=O)Nc4ccccc4C(=O)NC(C)C)sc3C2)cc(OC)n1 [Compound I-63] | ≥ 95% | – | > 20 µM | 80.1% | – | 2.7% | –
COc1cncc(C2CCc3nc(NC(=O)Nc4ccccc4C(=O)NC(C)C)sc3C2)c1 (stereo not drawn) [Compound I-81] | – | – | > 20 µM | – | (−) (When 3 μmol/L or less, the compound is shown as (−)) | – | –
COc1cc(N2CCc3nc(NC(=O)Nc4ccccc4C(=O)NCCC#N)sc3C2)nc(OC)n1 [Compound I-89] | ≥ 95% | – | ≥ 10 µM | 93.6% | (−) (When 3 μmol/L or less, the compound is shown as (−)) | – | –
COc1cc(N2CCc3nc(NC(=O)Nc4ccccc4C(=O)NCC#N)sc3C2)nc(OC)n1 [Compound I-90] | – | – | ≥ 10 µM | 83.4% | (−) (When 3 μmol/L or less, the compound is shown as (−)) | – | –
COc1cc(N2CCc3nc(NC(=O)Nc4cn(C)nc4C(=O)NC(CO)CO)sc3C2)nc(OC)n1 [Compound I-170] | ≥ 95% | – | > 20 µM | 91.6% | – | – | 80%
Cc1cc(N2CCc3nc(NC(=O)Nc4ccccc4C(=O)NCC#N)sc3C2)nc(Cl)n1 [Compound I-172] | ≥ 95% | – | ≥ 10 µM | 98% | (−) (When 3 μmol/L or less, the compound is shown as (−)) | – | –
COc1nc(Cl)cc(N2CCc3nc(NC(=O)Nc4ccccc4C(=O)NC4CCOC4)sc3C2)n1 (stereo not drawn) [Compound I-175] | ≥ 95% | – | ≥ 10 µM | – | – | 1.6% | 88%
COc1nc(Cl)cc(N2CCc3nc(NC(=O)Nc4ccccc4C(=O)NC(C)C(F)(F)F)sc3C2)n1 (stereo not drawn) [Compound I-176] | – | – | ≥ 10 µM | – | (−) (When 3 μmol/L or less, the compound is shown as (−)) | 0.4% | 83%
CC(C)NC(=O)c1ccccc1NC(=O)Nc1nc2c(s1)CN(c1cncc(C#N)c1)CC2 [Compound I-188] | 80% | – | > 20 µM | – | – | 3.9% | 84%
CC(C)NC(=O)c1ccccc1NC(=O)Nc1nc2c(s1)CN(c1ccc(S(C)(=O)=O)cc1)CC2 [Compound I-204] | ≥ 95% | – | > 20 µM | – | (−) (When 3 μmol/L or less, the compound is shown as (−)) | – | –
CC(C)NC(=O)c1ccccc1NC(=O)Nc1nc2c(s1)CN(c1ccc(C#N)cc1)CC2 [Compound I-209] | ≥ 95% | – | ≥ 10 µM | – | (−) (When 3 μmol/L or less, the compound is shown as (−)) | – | –

Further lines, with some results ahead:

inhibition at 10 µM (PI3Kγ) | IC50 at 15 min ([1]; pooled human liver microsomes, one value for five species (CYP1A2, 2C9, 2C19, 2D6, 3A4), pooled human liver microsome 0.2 mg protein/mL, 15 minutes, 37° C., test drug 1-20 μmol/L, read-out: 5CYPs_IC50) | IC50 at 15 min ([1]; human, microsomes) | hLMS_ox(at 0.5 μM) % [2] | SMILES | MBI (CYP3A4) | inhibition at 10 min, 1 µM (hERG channel (IKr)) | inhibition at 1 µM (AKT phosphorylation)
85% | ≥ 10 µM | – | – | COc1cc(N2CCc3nc(NC(=O)Nc4ccccc4C(=O)O)sc3C2)nc(OC)n1.Cl.Cl [Compound I-5] | (−) (When 3 μmol/L or less, the compound is shown as (−)) | – | –
≥ 95% | – | > 20 µM | 81.9% | COc1cc(C2CCc3nc(NC(=O)Nc4ccccc4C(=O)NC(C)C)sc3C2)nc(OC)n1 (stereo not drawn) [Compound I-60] | – | 3.6% | –
≥ 95% | – | ≥ 10 µM | – | COCCNC(=O)c1ccccc1NC(=O)Nc1nc2c(s1)CN(c1cc(OC)nc(OC)n1)CC2 [Compound I-86] | (−) (When 3 μmol/L or less, the compound is shown as (−)) | – | –
– | – | > 20 µM | – | CC(C)NC(=O)c1ccccc1NC(=O)Nc1nc2c(s1)CN(c1cncc(S(=O)(=O)N(C)C)c1)CC2 [Compound I-108] | (−) (When 3 μmol/L or less, the compound is shown as (−)) | – | –
≥ 95% | – | ≥ 10 µM | 84.7% | CC(CO)NC(=O)c1ccccc1NC(=O)Nc1nc2c(s1)CN(c1cccc(F)c1)CC2 (stereo not drawn) [Compound I-115] | – | – | –
71% | – | ≥ 10 µM | – | O=C(Nc1nc2c(s1)CN(c1cncc(C(F)(F)F)c1)CC2)Nc1ccccc1C(=O)NC(CO)CO [Compound I-173] | (−) (When 3 μmol/L or less, the compound is shown as (−)) | – | –

— patent publication US20120071475A1, “UREA DERIVATIVES HAVING PI3K-INHIBITING ACTIVITY” (SHIONOGI & CO., LTD., priority 2009, published 2012)
